From ChEMBL document CHEMBL5226297, “Small-Molecule Drug Discovery in Triple Negative Breast Cancer: Current Situation and Future Directions” (J Med Chem, 2021)

What was measured:
MDA-MB-231 [1] = assay: Anticancer activity against human MDA-MB-231 cells assessed as cell growth inhibition by MTS assay; format: functional, cell-based
Hs-578T [2] = assay: Anticancer activity against human Hs-578T cells assessed as cell growth inhibition by MTS assay; format: functional, cell-based
BT-549 [3] = assay: Anticancer activity against human BT-549 cells assessed as cell growth inhibition by MTS assay; format: functional, cell-based
[4] = target: Plasminogen activator inhibitor 1 (Homo sapiens) (UniProt P05121)
HCC1937 [5] = assay: Anticancer activity against human HCC1937 cells assessed as cell growth inhibition by MTT assay; format: functional, cell-based
BT-549 [6] = assay: Anticancer activity against human BT-549 cells assessed as cell growth inhibition by MTT assay; format: functional, cell-based
HCC1806 [7] = assay: Anticancer activity against human HCC1806 cells assessed as cell growth inhibition incubated for 24 hrs by MTS assay; format: functional, cell-based; settings: HCC1806, 24 h
HCC1937 [8] = assay: Anticancer activity against human HCC1937 cells assessed as cell growth inhibition incubated for 24 hrs by MTS assay; format: functional, cell-based; settings: HCC1937, 24 h
MDA-MB-231 [9] = assay: Anticancer activity against human MDA-MB-231 cells assessed as cell growth inhibition by crystal violet staining based haemocytometer analysis; format: functional
HCC38 = assay: Anticancer activity against human HCC38 cells assessed as cell growth inhibition by crystal violet staining based haemocytometer analysis; format: functional
MDA-MB-436 [10] = assay: Anticancer activity against human MDA-MB-436 cells assessed as cell growth inhibition by crystal violet staining based haemocytometer analysis; format: functional
[11] = target: Protein tyrosine phosphatase type IVA 3 (Homo sapiens) (UniProt O75365); assay: Inhibition of human PRL-3 incubated for 48 hrs by MMP assay
[12] = Inhibition of cIAP1 (unknown origin); design: species or system Homo sapiens
[13] = target: Proto-oncogene tyrosine-protein kinase Src (Homo sapiens, UniProt P12931); assay: Inhibition of human SRC by microplate reader analysis
MDA-MB-231 [14] = assay: cells; settings: Homo sapiens, MDA-MB-231, 48 h
MDA-MB-231 [15] = assay: Anticancer activity against human MDA-MB-231 cells assessed as cell growth inhibition incubated for 24 hrs by MTT assay; format: functional, cell-based; settings: MDA-MB-231, 24 h
MDA-MB-436 [16] = assay: Anticancer activity against human MDA-MB-436 cells assessed as cell growth inhibition incubated for 24 hrs by MTT assay; format: functional, cell-based; settings: MDA-MB-436, 24 h
SUM185PE = assay: Anticancer activity against human SUM185PE cells assessed as cell growth inhibition incubated for 6 days by CellTiter96 analysis; format: functional, cell-based; settings: 144 h
MDA-MB-231 [17] = assay: Anticancer activity against human MDA-MB-231 cells assessed as cell growth inhibition incubated for 72 hrs by CCK-8 assay; format: functional, cell-based; settings: MDA-MB-231, 72 h
BT-549 [18] = assay: Anticancer activity against human BT-549 cells assessed as cell growth inhibition incubated for 72 hrs by CCK-8 assay; format: functional, cell-based; settings: BT-549, 72 h
Hs-578T [19] = assay: Anticancer activity against human Hs-578T cells assessed as cell growth inhibition incubated for 72 hrs by CCK-8 assay; format: functional, cell-based
BT-20 = assay: Anticancer activity against human BT-20 cells assessed as cell growth inhibition incubated for 5 days by sulforhodamine B staining based assay; format: functional; settings: BT-20, 120 h
HCC70 = assay: Anticancer activity against human HCC70 cells assessed as cell growth inhibition incubated for 5 days by sulforhodamine B staining based assay; format: functional; settings: HCC70, 120 h
HCC1806 [20] = assay: Anticancer activity against human HCC1806 cells assessed as cell growth inhibition incubated for 5 days by sulforhodamine B staining based assay; format: functional; settings: HCC1806, 120 h
HCC1937 [21] = assay: Anticancer activity against human HCC1937 cells assessed as cell growth inhibition incubated for 5 days by sulforhodamine B staining based assay; format: functional; settings: HCC1937, 120 h
MDA-MB-231 [22] = assay: Anticancer activity against human MDA-MB-231 cells assessed as cell growth inhibition incubated for 5 days by sulforhodamine B staining based assay; format: functional; settings: MDA-MB-231, 120 h
SUM149PT = assay: Anticancer activity against human SUM149 cells assessed as cell growth inhibition incubated for 5 days by sulforhodamine B staining based assay; format: functional; settings: 120 h
SUM-159-PT = assay: Anticancer activity against human SUM159 cells assessed as cell growth inhibition incubated for 5 days by sulforhodamine B staining based assay; format: functional; settings: 120 h
Interleukin-8 = Interleukin-8 (Homo sapiens, UniProt P10145); assay: Inhibition of human IL-8 by ELISA assay
MDA-MB-231 [23] = assay: Anticancer activity against human MDA-MB-231 cells assessed as cell growth inhibition incubated for 72 hrs by MTT assay; format: functional, cell-based; settings: MDA-MB-231, 72 h
[24] = Inhibition of ERK (unknown origin); design: species or system Homo sapiens
BT-549 [25] = assay: Anticancer activity against human BT-549 cells assessed as cell growth inhibition incubated for 24 hrs by MTT assay; format: functional, cell-based; settings: BT-549, 24 h
MDA-MB-231 [26] = assay: Anticancer activity against human MDA-MB-231 cells assessed as cell growth inhibition by MTT assay; format: functional, cell-based

Chain of Interleukin-8 (P10145 whole entry): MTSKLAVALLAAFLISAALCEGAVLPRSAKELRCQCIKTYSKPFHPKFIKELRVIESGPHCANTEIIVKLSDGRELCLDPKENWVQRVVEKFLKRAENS
Chain of Protein tyrosine phosphatase type IVA 3 (Homo sapiens) (O75365 whole entry): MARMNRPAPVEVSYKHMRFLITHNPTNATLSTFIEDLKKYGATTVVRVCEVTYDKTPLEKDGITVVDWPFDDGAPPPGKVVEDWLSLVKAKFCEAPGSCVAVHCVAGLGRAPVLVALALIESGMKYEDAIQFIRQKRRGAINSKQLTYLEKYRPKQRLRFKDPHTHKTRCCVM
Chain of Proto-oncogene tyrosine-protein kinase Src (P12931 2-536 limits assumed): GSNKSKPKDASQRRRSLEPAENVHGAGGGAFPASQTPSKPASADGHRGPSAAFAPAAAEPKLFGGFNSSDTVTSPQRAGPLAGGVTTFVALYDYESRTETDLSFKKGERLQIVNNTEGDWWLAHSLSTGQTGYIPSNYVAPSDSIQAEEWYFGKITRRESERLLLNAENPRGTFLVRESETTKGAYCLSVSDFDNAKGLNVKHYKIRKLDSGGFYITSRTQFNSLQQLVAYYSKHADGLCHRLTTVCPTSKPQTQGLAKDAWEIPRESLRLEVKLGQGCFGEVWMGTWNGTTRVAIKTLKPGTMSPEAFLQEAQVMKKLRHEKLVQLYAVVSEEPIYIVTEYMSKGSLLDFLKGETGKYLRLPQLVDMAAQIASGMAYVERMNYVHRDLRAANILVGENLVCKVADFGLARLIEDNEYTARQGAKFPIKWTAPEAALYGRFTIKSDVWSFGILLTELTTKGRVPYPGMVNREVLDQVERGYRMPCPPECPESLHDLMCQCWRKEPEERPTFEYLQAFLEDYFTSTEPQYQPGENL
Chain of Plasminogen activator inhibitor 1 (Homo sapiens) (P05121 whole entry): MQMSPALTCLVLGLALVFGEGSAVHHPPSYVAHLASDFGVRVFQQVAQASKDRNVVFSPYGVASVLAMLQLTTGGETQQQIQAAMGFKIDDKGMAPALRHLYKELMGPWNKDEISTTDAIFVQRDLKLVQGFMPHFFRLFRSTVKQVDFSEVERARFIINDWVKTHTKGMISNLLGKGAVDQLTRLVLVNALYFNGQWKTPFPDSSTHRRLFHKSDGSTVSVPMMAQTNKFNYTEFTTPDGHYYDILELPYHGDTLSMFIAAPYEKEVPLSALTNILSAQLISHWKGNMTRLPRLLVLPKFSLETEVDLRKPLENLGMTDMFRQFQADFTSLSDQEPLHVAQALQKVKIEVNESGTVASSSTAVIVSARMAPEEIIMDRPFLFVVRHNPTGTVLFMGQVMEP

Work on COc1cc2nccc(C(OC(C)=O)c3ccc4c(c3OC)C=CC(C)(C)O4)c2cc1OC (stereo not drawn) yielded an IC50 (MDA-MB-231 [1]) of 5 µM, an IC50 (Hs-578T [2]) of 5 µM and an IC50 (BT-549 [3]) of 15 µM.

Work on O=C(O)C(=O)c1cn(Cc2ccccc2)c2ccc(-c3ccc(OC(F)(F)F)cc3)cc12 yielded an IC [4] of 5 µM.

Cc1cc(C=C2C(=O)C=CC2=O)cc(C)c1O showed an IC50 (HCC1937 [5]) of 51.1 µM and an IC50 (BT-549 [6]) of 27.5 µM.

COC(=O)[C@@H](O)[C@](O)(CCC(C)C)C(=O)O[C@@H]1C(OC)=C[C@]23CCCN2CCc2cc4c(cc2[C@H]13)OCO4 showed an IC50 (HCC1806 [7]) of 0.1 µM and an IC50 (HCC1937 [8]) of 0.5 µM.

Compound CC(=O)c1c(C)c2cnc(Nc3ccc(N4CCNCC4)cn3)nc2n(C2CCCC2)c1=O [PALBOCICLIB] has an EC50 (MDA-MB-231 [9]) of 0.3 µM, an EC50 (HCC38) of 1.4 µM and an EC50 (MDA-MB-436 [10]) of 5 µM.

C=C1/C(=C\C=C2/CCC[C@]3(C)[C@@H]([C@H](C)CCCC(C)(C)O)CC[C@@H]23)C[C@@H](OC(=O)CBr)C[C@@H]1O showed an IC [11] of 100 nM.

For CN[C@@H](C)C(=O)N[C@H](C(=O)N1CCC[C@H]1c1nc(C(=O)c2ccc(F)cc2)cs1)C1CCCCC1 [LCL-161], the IC50 [12] was 0.0004 µM.

Cc1nc2c(c(C)c1O)CC(=O)N2 showed an IC50 [13] of 3.23 µM.

Compound C=C(C)[C@@H]1CCC(C)=C[C@H]1c1c(O)cc(CCCCC)cc1O [CANNABIDIOL] has an IC50 (MDA-MB-231 [14]) of 6 µM.

Work on CNCCC(Oc1ccc(C(F)(F)F)cc1)c1ccccc1 (stereo not drawn) [FLUOXETINE] yielded an IC50 (MDA-MB-231 [15]) of 0.5 µM and an IC50 (MDA-MB-436 [16]) of 0.5 µM.

Compound CCN(CC)CCCCNc1ncc2cc(-c3cc(OC)cc(OC)c3)c(NC(=O)NC(C)(C)C)nc2n1 [PD-173074] has an IC50 (SUM185PE) of 0.02 µM.

CO[C@H]1/C=C\C=C(/C)C(=O)NC2=CC(=O)C(NCCN(C)C)=C(C[C@@H](C)C[C@H](OC)[C@H](O)[C@@H](C)/C=C(\C)[C@@H]1OC(N)=O)C2=O [ALVESPIMYCIN] gave an IC50 (MDA-MB-231 [17]) of 45.7 µM, an IC50 (BT-549 [18]) of 17.1 µM and an IC50 (Hs-578T [19]) of 0.0084 µM.

With C=C1[C@H]2[C@@H](/C(=C/C)C(=O)[C@H]2CC(=O)C(C)CC)[C@H](C(C)C)N[C@H]1CC(=O)/C=C(\C)CC (stereo partly drawn) the IC50 (MDA-MB-231 [15]) was 5 µM.

For CCNc1cc(O)c2c(c1)/C=C/C[C@H](O)[C@H](O)C(=O)/C=C\[C@@H](C)[C@H](C)OC2=O [E-6201], the IC50 (BT-20) was 10.1 µM, the IC50 (HCC70) was 8.79 µM and the IC50 (HCC1806 [20]) was 2.5 µM. The IC50 (HCC1937 [21]) was 3.73 µM, the IC50 (MDA-MB-231 [22]) was 0.25 µM and the IC50 (SUM149PT) was 0.21 µM. For the same compound, the IC50 (SUM-159-PT) was 2.36 µM.

COc1ccc2cc3[n+](cc2c1OC)CCc1cc2c(cc1-3)OCO2 [BERBERINE] gave an IC50 (Interleukin-8) of 50 µM.

C=Cc1c(C)c2cc3nc(c4c5nc(cc6[nH]c(cc1[nH]2)c(C)c6CC)C(C)=C5C(=O)[C@@H]4C(=O)OC)C(CCC(=O)O)=C3C showed an IC50 (MDA-MB-231 [23]) of 6.5 µM.

For Clc1cc(Cl)cc(C(Cn2ccnc2)OCc2nc3ccccc3s2)c1 (stereo not drawn), the IC50 [24] was 5 µM.

With C=C1C(=O)O[C@]2(C)CC[C@H](CBr)[C@]12O the IC50 (MDA-MB-231 [15]) was 12.1 µM, the IC50 (MDA-MB-436 [16]) was 11.8 µM and the IC50 (BT-549 [25]) was 9.63 µM.

Compound CN(C)CC/C=C1\c2ccccc2COc2ccc(CC(=O)NN)cc21 has an IC50 (MDA-MB-436 [16]) of 5 µM.

N[C@@H](C(=O)N[C@@H]1C(=O)N2C(C(=O)O)=C(CSc3c[nH]nn3)CS[C@H]12)c1ccc(O)cc1 [CEFATRIZINE] showed an IC50 (MDA-MB-436 [16]) of 30 µM.

Compound O=C(/C=C/c1ccc(O)c(O)c1)O[C@@H]1C[C@](OC(=O)/C=C/c2ccc(O)c(O)c2)(C(=O)O)C[C@@H](O)[C@H]1O [1,5-O-TRANS-DICAFFEOYLQUINIC ACID] has an IC50 (MDA-MB-231 [26]) of 81.9 µM.
